test: Antagonist activity at CRTh2 receptor in human eosinophil assessed as inhibition of PGD2-induced cell shape change

IC50 [nM] | Compound
13 | CCN(Cc1cc(C(F)(F)F)ccc1-c1cc(CC(=O)O)ccc1OC)C(=O)C1CC1
8 | CCN(Cc1cc(C(F)(F)F)ccc1-c1cn(CC(=O)O)c2ccncc12)C(=O)C1CC1
94 | CCN(Cc1cc(C(F)(F)F)ccc1-c1nc(CC(=O)O)c2ccccn12)C(=O)C1CC1
20 | CCN(Cc1cc(C(F)(F)F)ccc1-n1cc(CC(=O)O)c2cccnc21)C(=O)C1CC1
58 | CCN(Cc1cc(C(F)(F)F)ccc1-c1cc(CC(=O)O)cc2cnn(C)c12)C(=O)C1CC1
43 | CCN(Cc1cc(C(F)(F)F)ccc1-c1cc(CC(=O)O)cc2cn(C)nc12)C(=O)C1CC1
63 | CCN(Cc1cc(C(F)(F)F)ccc1-c1cn(CC(=O)O)c2ccccc12)C(=O)C1CC1
19 | CCN(Cc1cc(C(F)(F)F)ccc1-c1cc(CC(=O)O)c2ccncn12)C(=O)C1CC1
14 | CCN(Cc1cc(C(F)(F)F)ccc1-c1cn(CC(=O)O)c2cccnc12)C(=O)C1CC1
